From patent publication US10842779B2, “Heterocyclic compounds and their use in preventing or treating bacterial infections” (priority 2015, dated 2020)
pIC50: −log10 of the molar value. Where two headings read alike, the source gives them in different places.

Assays:
CTX-M-15 = molecular target: T1, CTX-M-15 (Escherichia coli, UniProt Q9EXV5); test: β-Lactamase inhibitory activity, nitrocefin hydrolysis; type: biochemical; conditions: class (A); 30 min pre-incubation
T1 construct: made in house; host or cells: E. coli

AmpC (P99) = AmpC (P99) (Enterobacter cloacae, UniProt P05364); test: biochemical
Protocol: (§1) Method 1: β-Lactamase Inhibitory Activity, Determination of IC50 (Table 1)
(§2) Enzyme activity was monitored by spectrophotometric measurement of nitrocefin (NCF-TOKU-E, N005) hydrolysis at 485 nm, at room temperature and in assay buffer A: 100 mM Phosphate pH7, 2% glycerol and 0.1 mg/mL Bovine serum albumin (Sigma, B4287). Enzymes were cloned in E. coli expression vector, expressed and purified in house using classical procedures. To a transparent polystyrene plate (Corning, 3628) were added in each well 5 μL DMSO or inhibitor dilutions in DMSO and 80 μL enzyme in buffer A. Plates were immediately read at 485 nm in a microplate spectrophotometer (BioTek, PowerWave HT) to enable background subtraction. After 30 min of pre-incubation at room temperature, 15 μL of NCF (200 μM final) were finally added in each well. Final enzyme concentrations were 0.1 nM (TEM-1), 0.075 nM (SHV-1), 0.4 nM (CTX-M-15), 1 nM (KPC-2), 0.2 nM (P99 AmpC), 0.2 nM (CMY-37), 0.4 nM (AmpC P. aeruginosa), 0.2 nM (OXA-1), 1.2 nM (OXA-11), 0.4 nM (OXA-15) and 0.3 nM (OXA-48). After 20 min incubation at room temperature, plates were once again read at 485 nm. Enzyme activity was obtained by subtracting the final signal by the background, and was converted to enzyme inhibition using non inhibited wells. IC50 curves were fitted to a classical Langmuir equilibrium model with Hill slope using XLFIT (IDBS).

AmpC (PAE) = AmpC (PAE) (Pseudomonas aeruginosa, UniProt P24735); test: biochemical
Protocol: as §1, §2

[1] = molecular target: CMY-37 (Citrobacter freundii); test: β-Lactamase inhibitory activity, nitrocefin hydrolysis; type: biochemical
OXA-1 = molecular target: T2, OXA-1 (Escherichia coli, UniProt P13661); test: as above; type: biochemical; conditions: class (D); 30 min pre-incubation
T2 construct: made in house; host or cells: E. coli

OXA-15 = molecular target: T3, OXA-15 (Pseudomonas aeruginosa, UniProt Q51574); test: as above; type: biochemical
T3 construct: made in house; host or cells: E. coli

OXA-48 = molecular target: T4, OXA-48 (Klebsiella pneumoniae, UniProt Q6XEC0); test: as above; type: biochemical; conditions: class (D); 30 min pre-incubation
T4 construct: made in house; host or cells: E. coli

C. freundii = test: Synergy with ceftazidime: MIC of ceftazidime at fixed concentration of compound; type: cell-based; conditions: Citrobacter freundii; CFR UFR10; beta-lactamases OXA-48; read-out: MIC of CAZ + compound (4 μg/mL)
Protocol: (§3) Method 2: MIC of Compounds and Synergy with Ceftazidime Against Bacterial Isolates (Table 2 and 3)
(§4) Compounds of the present invention were assessed against genotyped bacterial strains alone or in combination with the β-lactam ceftazidime. In the assays, MICs of said compounds, or of ceftazidime at fixed concentrations of said compounds were determined by the broth microdilution method according to the Clinical Laboratory Standards Institute (CLSI—M7-A7). Briefly, compounds alone according to the invention were prepared in DMSO and spotted (2 μL each) on sterile polystyrene plates (Corning, 3788). Compounds and ceftazidime dilutions were prepared in DMSO and spotted (1 μL each) on sterile polystyrene plates (Corning, 3788). Log phase bacterial suspensions were adjusted to a final density of 5×10^5 cfu/mL in cation-adjusted Mueller-Hinton broth (Beckton-Dickinson) and added to each well (98 μL). Microplates were incubated for 16-20 h at 35° C. in ambient air. The MIC of the compounds was defined as the lowest concentration of said compounds that prevented bacterial growth as read by visual inspection. The MIC of ceftazidime at each compound concentration was defined as the lowest concentration of ceftazidime that prevented bacterial growth as read by visual inspection.

C. murliniae = test: as above; type: cell-based; conditions: CMU 210102; beta-lactamases VIM-4; read-out: MIC of CAZ + compound (4 μg/mL)
Protocol: as §3, §4

E. aerogenes = test: as above; type: cell-based; conditions: Klebsiella aerogenes; EAE 200261; beta-lactamases TEM-x AmpC; read-out: MIC of CAZ + compound (4 μg/mL)
Protocol: as §3, §4

E. cloacae = test: as above; type: cell-based; conditions: Enterobacter cloacae
Protocol: as §3, §4

K. oxytoca = test: as above; type: cell-based; conditions: Klebsiella oxytoca, read-out: MIC of CAZ + compound (4 μg/mL)
Protocol: as §3, §4

K. pneumoniae = test: as above; type: cell-based; conditions: Klebsiella pneumoniae
Protocol: as §3, §4

M. morganii = test: as above; type: cell-based; conditions: Morganella morganii, read-out: MIC of CAZ + compound (4 μg/mL)
Protocol: as §3, §4

P. aeruginosa = test: as above; type: cell-based; conditions: Pseudomonas aeruginosa, read-out: MIC of CAZ + compound (4 μg/mL)
Protocol: as §3, §4

P. mirabilis = test: as above; type: cell-based; conditions: Proteus mirabilis; PMI UFR82; beta-lactamases CMY-2; read-out: MIC of CAZ + compound (4 μg/mL)
Protocol: as §3, §4

S. marcescens = test: as above; type: cell-based; conditions: Serratia marcescens; SMA UFR30; beta-lactamases OXA-405; read-out: MIC of CAZ + compound (4 μg/mL)
Protocol: as §3, §4

For `O=C(O)C(F)(F)F.O=C1N2C[C@H](c3scnc3[C@H]2c2ncc[nH]2)N1OS(=O)(=O)[O-].[Na+]` (relative stereo) [Example 1, Sodium and 2,2,2-trifluoroacetate [trans-7-(1H-imidazol-3-ium-2-yl)-9-oxo-3-thia-5,8,10-triaza-tricyclo[6.2.1.0^2,6]undeca-2(6),4-dien-10-yl]sulfate], the pIC50 (CTX-M-15) was 8.57, the pIC50 (AmpC (P99)) was 9.43 and the pIC50 (AmpC (PAE)) was 7.77. The pIC50 [1] was 9.20, the pIC50 (OXA-1) was 6.72 and the pIC50 (OXA-15) was 6.57. For the same molecule, the pIC50 (OXA-48) was 8.08, the MIC (C. freundii) was < 0.25 µg/mL and the MIC (C. murliniae) was < 0.25 µg/mL. For the same molecule, the MIC (E. aerogenes) was < 0.25 µg/mL, the MIC (E. cloacae; ECL 2185D, beta-lactamases OXA-163, read-out: MIC of CAZ + compound (4 μg/mL)) was 1 µg/mL and the MIC (E. cloacae; ECL 190310, beta-lactamases AmpC, read-out: MIC of CAZ + compound (4 μg/mL)) was < 0.25 µg/mL. The MIC (E. cloacae; ECL 200138, beta-lactamases AmpC, read-out: MIC of CAZ + compound (4 μg/mL)) was 8 µg/mL, the MIC (E. cloacae; ECL 260033, beta-lactamases AmpC, read-out: MIC of CAZ + compound (4 μg/mL)) was 4 µg/mL and the MIC (E. cloacae; ECL 260323, beta-lactamases AmpC, read-out: MIC of CAZ + compound (4 μg/mL)) was < 0.25 µg/mL. The MIC (E. cloacae; ECL HAN, beta-lactamases OXA-35, read-out: MIC of CAZ + compound (4 μg/mL)) was 2 µg/mL, the MIC (E. cloacae; ECL NEM146383, beta-lactamases AmpC, read-out: MIC of CAZ + compound (4 μg/mL)) was < 0.25 µg/mL and the MIC (E. cloacae; ECL P99, beta-lactamases AmpC, read-out: MIC of CAZ + compound (4 μg/mL)) was < 0.25 µg/mL. The MIC (E. cloacae; ECL UFR12, beta-lactamases CTX-M-9 OXA-48, read-out: MIC of CAZ + compound (4 μg/mL)) was < 0.25 µg/mL, the MIC (E. cloacae; ECL UFR38, beta-lactamases CTX-M-15 NDM-1, read-out: MIC of CAZ + compound (4 μg/mL)) was < 0.25 µg/mL and the MIC (E. cloacae; ECL UFR51, beta-lactamases SHV-12 IMP-8, read-out: MIC of CAZ + compound (4 μg/mL)) was < 0.25 µg/mL. The MIC (E. cloacae; read-out: MIC of CAZ + compound (4 μg/mL), ECL UFR84, beta-lactamases TEM-1 AmpC OXA-1) was ≤ 0.25 µg/mL, the MIC (K. oxytoca) was < 0.25 µg/mL and the MIC (K. pneumoniae; BAA1898, read-out: MIC of CAZ + compound (4 μg/mL), KPN BAA-1898, beta-lactamases TEM-1, SHV-11, SHV-12 KPC-2) was 0.5 µg/mL. For the same molecule, the MIC (K. pneumoniae; KPN 700603, beta-lactamases SHV-18 OXA-2, read-out: MIC of CAZ + compound (4 μg/mL)) was < 0.25 µg/mL, the MIC (K. pneumoniae; KPN LIB, beta-lactamases SHV-11 OXA-48, read-out: MIC of CAZ + compound (4 μg/mL)) was < 0.25 µg/mL and the MIC (K. pneumoniae; KPN UFR42, beta-lactamases SHV-2, CTX-M-15 OXA-1 OXA-181 NDM-1, read-out: MIC of CAZ + compound (4 μg/mL)) was < 0.25 µg/mL. For the same molecule, the MIC (K. pneumoniae; KPN UFR43, beta-lactamases SHV-11, CTX-M-15 CMY-2 OXA-1 NDM-1, read-out: MIC of CAZ + compound (4 μg/mL)) was ≤ 0.25 µg/mL, the MIC (K. pneumoniae; KPN UFR77, beta-lactamases CMY-2, read-out: MIC of CAZ + compound (4 μg/mL)) was < 0.25 µg/mL and the MIC (K. pneumoniae; KPN UFR79, beta-lactamases DHA-1 OXA-1, read-out: MIC of CAZ + compound (4 μg/mL)) was < 0.25 µg/mL. For the same molecule, the MIC (K. pneumoniae; KPN UFR80, beta-lactamases SHV-11 DHA-1 OXA-1, read-out: MIC of CAZ + compound (4 μg/mL)) was < 0.25 µg/mL, the MIC (K. pneumoniae; read-out: MIC of CAZ + compound (4 μg/mL), KPN 6299, beta-lactamases TEM-1, SHV-11 OXA-163) was ≤ 0.125 µg/mL and the MIC (K. pneumoniae; read-out: MIC of CAZ + compound (4 μg/mL), KPN 260252, beta-lactamases TEM-1, SHV-11 KPC-3) was > 128 µg/mL. The MIC (M. morganii) was ≤ 0.25 µg/mL, the MIC (P. aeruginosa; PAE CIP107051, beta-lactamases TEM-24) was 8 µg/mL and the MIC (P. aeruginosa; PAE MUS, beta-lactamases OXA-20 OXA-18) was 8 µg/mL. The MIC (P. mirabilis) was ≤ 0.25 µg/mL and the MIC (S. marcescens) was < 0.25 µg/mL.
